# Measurements taken from patent US20040132803A1, “Agent for the treatment of overactive bladder” (priority 2003, published 2004).
# Legend:
# Na^+ currents = assay: Voltage-clamp inward Na^+ currents in DRG cells; type: cell-based, rat
# Procedure: (§1) Experiments were performed on adult female Sprague Dawley rats. First and second series of the experiments were performed, respectively, in unidentified DRG neurons and a specific population of DRG neurons innervating the urinary bladder. The population of DRG neurons that innervate the urinary bladder were labeled by retrograde axonal transport of the fluorescent dye, Fast Blue (4% w/v) (Polyloy, Gross Umstadt, Germany), injected into the wall of the bladder in halothane-anesthetized animals 7 days before the dissociation. The dye was injected with a 28 gauge needle at three to six sites on the dorsal surface of the organ (5-6 μL per site, total volume of 20-30 μL). Each injection site was washed with saline to minimize contamination of adjacent organs with the dye.
# Freshly dissociated neurons from DRG were prepared from halothane-anesthetized animals. L6 and S1 DRG were dissected from animals and then dissociated in a shaking bath for 25 minutes at 35° C. with 5 mL DMEM (Sigma) containing 0.3 mg/mL trypsin (Type 3, Sigma), 1 mg/mL collagenase (Type 1, Sigma), and 0.1 mg/mL deoxyribonuclease (Type 4, Sigma). Trypsin inhibitor (Type 2a, Sigma) was then added thereto to neutralize the activity of trypsin. Individual DRG cell bodies were isolated by trituration and then plated on a poly-L-lysine-coated 35 mm Petri dishes.
# Dye-labeled primary afferent neurons that innervate the urinary bladder were identified using an inverted phase-contrast microscope (Nikon, Tokyo, Japan) with fluorescent attachments (UV-1A filter; excitation wavelength, 365 nm). Gigaohm-seal whole-cell recordings were performed at room temperature (20-22° C.) on each labeled neuron in a culture dish that usually contained three to seven labeled cells among a few hundred unlabeled neurons. The internal solution contained (in mmol/L): KCl 140, CaCl2 1, MgCl2 2, EGTA 11, HEPES 10, Mg-ATP 2, and Tris-GTP 0.4 adjusted to pH 7.4 with KOH. Patch electrodes had resistances of 1-4 MΩ when filled with the internal solution. Neurons were superfused at a flow rate of 1.5 mL/minutes with an external solution containing (in mmol/L): NaCl 150, KCl 5, CaCl2 2.5, MgCl2 1, HEPES 10, and D-glucose 10, adjusted to pH 7.4 with NaOH. All recordings were made with an Axopatch-1D patch-clamp amplifier (Axon Instruments, Foster City, Calif.), and data were acquired and analyzed by PCLAMP software (Axon Instruments).
# Inward Na^+ currents were evoked by voltage steps to +60 mV, 800 ms long from a holding potential of −90 mV. Currents were measured at the maximum (peak) and normalized to control (before addition of the compound).
# [1] = test system: slowly-inactivating A-type K^+ currents; assay: Slowly-inactivating A-type K^+ currents in Fast Blue-labeled capsaicin-sensitive bladder afferent neurons; type: cell-based, rat; conditions: 1.0 × 10^−6 mol/L
# Procedure: as §1
# Freshly dissociated neurons from DRG were prepared from halothane-anesthetized animals. […]
# Dye-labeled primary afferent neurons that innervate the urinary bladder were identified using an inverted phase-contrast microscope (Nikon, Tokyo, Japan) with fluorescent attachments (UV-1A filter; excitation wavelength, 365 nm). […] All recordings were made with an Axopatch-1D patch-clamp amplifier (Axon Instruments, Foster City, Calif.), and data were acquired and analyzed by PCLAMP software (Axon Instruments).
# In voltage-clamp recordings, outward K^+ currents and inward Na^+ currents were measured. […]
# [2] = test system: rats with hypertrophic bladder; assay: Inhibition of detrusor instability, cystometry in rats with partial urethra obstruction (hypertrophic bladder); type: in vivo, rat; conditions: for micturition contraction, relative to before administration = 100 / pre-micturition contraction, relative to before administration = 100: rats with partial urethra obstruction
# Text: Partial urethra obstruction was induced in rats.
# dd male mice = conditions: mouse, in vivo, po, 7 days
# Procedure: The test compound was administered orally or intraperitoneally to 3 animals per group of dd male mice (body weight, 20±1 g). Minimum lethal dose (MLD) value was obtained by observing mortality on the 7th day after the administration.
# [3] = 0.001 mg/kg p.o., after 3 hours
# [4] = 0.001 mg/kg p.o., after 5 hours
smiles,measurement,setting,value
"C[C@](O)(C(=O)Nc1cccc2c1C(=O)c1sccc1CS2(=O)=O)C(F)(F)F [Compound 1, (S)-(+)-N-(5,5-dioxido-10-oxo-4,10-dihydrothieno[3,2-c][l]benzothiepin-9-yl)-3,3,3-trifluoro-2-hydroxy-2-methylpropanamide]",influence upon Na^+ currents,Na^+ currents,does not exert influence
same,"Na^+ ion currents, normalized to control",Na^+ currents; 1.0 × 10^−6 mol/L,0.99 ± 0.02
same,"Na^+ ion currents, normalized to control",Na^+ currents; 5.0 × 10^−4 mol/L,1.00 ± 0.01
same,"Na^+ ion currents, normalized to control",Na^+ currents; 5.0 × 10^−5 mol/L,1.00 ± 0.01
same,"Na^+ ion currents, normalized to control",Na^+ currents; 5.0 × 10^−6 mol/L,1.00 ± 0.00
same,"Na^+ ion currents, normalized to control",Na^+ currents; 5.0 × 10^−7 mol/L,0.99 ± 0.01
same,"Na^+ ion currents, normalized to control",Na^+ currents; 5.0 × 10^−8 mol/L,0.99 ± 0.01
same,"A-type IK (HP: −120 mV)-(HP: −40 mV), normalized to control",[1],1.26 ± 0.03
same,"micturition contraction, relative to before administration = 100","[2]; 0.001 mg/kg p.o., after 1 hour",99.3 ± 2.3%
same,"pre-micturition contraction, relative to before administration = 100","[2]; 0.001 mg/kg p.o., after 1 hour",105.9 ± 7.8%
same,"micturition contraction, relative to before administration = 100",[2]; [3],101.5 ± 3.3%
same,"pre-micturition contraction, relative to before administration = 100",[2]; [3],100.3 ± 10.0%
same,"micturition contraction, relative to before administration = 100",[2]; [4],98.7 ± 5.2%
same,"pre-micturition contraction, relative to before administration = 100",[2]; [4],104.2 ± 10.2%
same,"micturition contraction, relative to before administration = 100","[2]; 0.01 mg/kg p.o., after 1 hour",99.6 ± 1.2%
same,"pre-micturition contraction, relative to before administration = 100","[2]; 0.01 mg/kg p.o., after 1 hour",59.5 ± 4.1 %
same,"micturition contraction, relative to before administration = 100","[2]; 0.01 mg/kg p.o., after 3 hours",92.6 ± 3.2%
same,"pre-micturition contraction, relative to before administration = 100","[2]; 0.01 mg/kg p.o., after 3 hours",69.5 ± 4.4 %
same,"micturition contraction, relative to before administration = 100","[2]; 0.01 mg/kg p.o., after 5 hours",90.1 ± 4.3%
same,"pre-micturition contraction, relative to before administration = 100","[2]; 0.01 mg/kg p.o., after 5 hours",67.8 ± 5.5 %
same,"micturition contraction, relative to before administration = 100","[2]; 0.1 mg/kg p.o., after 1 hour",106.2 ± 9.2%
same,"pre-micturition contraction, relative to before administration = 100","[2]; 0.1 mg/kg p.o., after 1 hour",55.8 ± 8.2 %
same,"micturition contraction, relative to before administration = 100","[2]; 0.1 mg/kg p.o., after 3 hours",105.2 ± 9.6%
same,"pre-micturition contraction, relative to before administration = 100","[2]; 0.1 mg/kg p.o., after 3 hours",66.2 ± 4.7 %
same,"micturition contraction, relative to before administration = 100","[2]; 0.1 mg/kg p.o., after 5 hours",100.1 ± 8.6%
same,"pre-micturition contraction, relative to before administration = 100","[2]; 0.1 mg/kg p.o., after 5 hours",69.2 ± 7.4 %
same,effect on micturition contraction,[2]; rats with hypertrophic bladder,had no influence
same,effect on pre-micturition contraction (detrusor instability),[2]; rats with hypertrophic bladder,inhibited
same,Minimum lethal dose (MLD),dd male mice,"> 1,000 mg/kg"
